Paper PMC8156816, “Antibacterial Activities of Homemade Matrices Miming Essential Oils Compared to Commercial Ones” (Antibiotics, 2021)
In brackets after ≈: the same amount, converted by molar mass. Like-named read-outs stand apart in the source and are kept apart here.

What was measured:
[1] = test system: Staphylococcus aureus LMG 21674 (FUSR); assay: Direct antibacterial activity, broth microdilution MIC; format: cell-based; conditions: for MIC: Staphylococcus aureus
Method: (§1) Two types of antibacterial assays were employed as previously described. All the samples, essential oils, mixtures of essential oil types, and individual compounds were evaluated alone (direct activity) or in association with an antibiotic (indirect activity) at a sub-MIC concentration (non-active concentration). The tested strains were the Gram-positive Staphylococcus aureus LMG 15,975 (methicillin-resistant S. aureus, abbreviated as MRSA) and S. aureus LMG 21,674 (fusidic-acid-resistant S. aureus, abbreviated as FUSR). The chosen antibiotics were penicillin V and fusidic acid. The broth microdilution method in 96-well plates was used to determine the minimum inhibitory concentration (MIC). For the direct activity, samples were serially diluted to achieve a concentration ranging from 1 mg/mL to 2 μg/mL. For the indirect activity, the antibiotic was first serially diluted (from 64 to 7.103 μg/mL) and the samples were subsequently added to the wells at the defined sub-MIC concentration. These ranges were chosen because above them the sample is considered as non-active. For both assays, the inoculum was prepared from a suspension of 24-hour colonies to obtain a turbidity of 0.5 McFarland and added to the wells to achieve a final concentration of 5 × 10^5 CFU/mL. Plates were then incubated at 37 °C overnight and MTT (0.8 mg/mL) was used to determine the MIC by naked eye. A growth (Mueller–Hinton broth medium with inoculum) and a non-growth (only MHB) control were carried out. In addition, antibiotics were also always tested alone as positive controls.

[2] = test system: Staphylococcus aureus LMG 15975 (MRSA); assay: as above; format: cell-based; conditions: read-out: Direct Activity MRSA MIC
Method: as §1

human lung cells = conditions: cited from earlier work
[3] = test system: Staphylococcus aureus LMG 21674 (FUSR); assay: Indirect antibacterial activity in association with penicillin V; format: cell-based; conditions: sample at sub-MIC, versus penicillin V alone (16 μg/mL)
From the text: as §1, with “All the samples, essential oils, mixtures of essential oil types, and individual compounds were evaluated alone (direct activity) or in association with an antibiotic (indirect activity) at a sub-MIC concentration (non-active concentration).” left out
(§2) The indirect activity presented in this study made use of a different method to test synergistic effects between two compounds. The difference with the traditional checkerboard method was that compound A (antibiotic) was serially diluted and compound B (essential oil/pure metabolite or homemade mixture) was added at a fix sub-MIC concentration, determined under the cytotoxic activity threshold. […] An indirect activity is observed when the MIC of the association is lower than the MIC of the antibiotic alone.

[4] = test system: Staphylococcus aureus LMG 15975 (MRSA); assay: as above; format: cell-based; conditions: sample at sub-MIC, versus penicillin V alone (4 μg/mL)
From the text: as §1, with “All the samples, essential oils, mixtures of essential oil types, and individual compounds were evaluated alone (direct activity) or in association with an antibiotic (indirect activity) at a sub-MIC concentration (non-active concentration).” left out
as §2

[5] = Cytotoxic activity, colorimetric MTT assay on keratinocytes; format: cell-based; conditions: human, HaCaT keratinocyte cells, interpretation proposed by Döll-Boscardin et al.
Method: The effect of each essential oil on the global growth of the cell line was investigated through a colorimetric MTT assay as previously described. Briefly, human keratinocytes cells (HaCaT) were grown in RPMI supplemented with 10% fetal bovine serum and 0.5% penicillin-streptomycin and seeded at a density of 10 000 cells/mL in 96-well plates. […] The contact time of incubation was 72 h. Finally, after 3 to 5 hours of incubation with the MTT (0.5 mg/mL), the plates were centrifuged at 1200 rpm for 5 min, the supernatant was discarded, and the formazan crystals formed dissolved in DMSO. A spectrophotometer (680XR, BioRad, Hercules, CA, USA) was used to measure the absorbance (at 570 and 630 nm), which can be directly correlated to the number of viable cells (cell viability (% RC) = (absorbance of treated cells/absorbance of control) × 100).

MRSA strains = conditions: same strain and other MRSA strains; cited from earlier work
[6] = test system: green monkey kidney, mouse fibroblast, human retinal ganglion, and human colon fibroblast cell lines; conditions: cited from earlier work
S. aureus MTCC 7405 = test system: S. aureus MTCC 7405; set-up: method as in Dahham et al. (2015); conditions: ref Dahham et al. (2015); cited from earlier work
MSSA (ATCC 29,213) = test system: MSSA (ATCC 29,213); set-up: method as in PMID 32629822; conditions: cited from earlier work
[7] = test system: S. aureus ATCC 25923 (MSSA); set-up: method as in PMID 16619365; conditions: cited from earlier work
[8] = LMG21674, sample alone, broth microdilution, median, read-out: Direct Activity FUSR MIC
[9] = sample alone, broth microdilution, median

**Q.** For `Cc1ccc(C(C)C)cc1O` [Carvacrol], which MIC ([1]; LMG21674, read-out: Direct Activity FUSR MIC) is on record?
**A.** The MIC was 62.5 µg/mL (≈ 416 µM).

**Q.** What about the MIC [2] of the same molecule?
**A.** The MIC was 250 µg/mL (≈ 1660 µM).

**Q.** And the cytotoxicity (human lung cells)?
**A.** The cytotoxicity was “low cytotoxicity”.

**Q.** And the “decrease of the MIC of penicillin V on FUSR S. aureus” value [3]?
**A.** The value was 4 fold.

**Q.** What about the “decrease of the MIC of penicillin V on MRSA” value (from here on “decrease of the MIC … on MRSA”) [4] of the same molecule?
**A.** Its value is 4 fold.

**Q.** Which MIC [1, 8] does the source give for `C=CC(C)(O)CCC=C(C)C` (stereo not shown) [Linalool] here?
**A.** The MIC was > 1000 µg/mL.

**Q.** What about the MIC [2, 9] of the same molecule?
**A.** The MIC was > 1000 µg/mL.

**Q.** What about the IC50 at 72 h [5] of the same molecule?
**A.** Its IC50 at 72 h is < 31.3 µg/mL.

**Q.** Which MIC [1, 8] does the source give for `CC1(C)S[C@@H]2[C@H](NC(=O)COc3ccccc3)C(=O)N2[C@H]1C(=O)O` [PEN V, penicillin V] here?
**A.** The MIC was 16 µg/mL (≈ 45.7 µM).

**Q.** And the MIC [2, 9]?
**A.** Its MIC is 4 µg/mL (≈ 11.4 µM).

**Q.** Which MIC [1, 8] does the source give for `Cc1ccc(C(C)C)c(O)c1` [Thymol] here?
**A.** Its MIC is 125 µg/mL (≈ 832 µM).

**Q.** And the MIC [2, 9]?
**A.** Its MIC is 250 µg/mL (≈ 1660 µM).

**Q.** What about the MIC (MRSA strains) of the same molecule?
**A.** The MIC was “around 600 μg/mL”.

**Q.** What about the cytotoxicity (human lung cells) of the same molecule?
**A.** The cytotoxicity was “low cytotoxicity”.

**Q.** And the “decrease of the MIC … on MRSA” value [4]?
**A.** Its value is 4 fold.

**Q.** Which MIC [1, 8] does the source give for `CC(=O)O[C@H]1C[C@@]2(C)[C@@H](C[C@@H](O)[C@H]3[C@@]4(C)CC[C@@H](O)[C@@H](C)[C@@H]4CC[C@@]32C)/C1=C(\CCC=C(C)C)C(=O)O` [fusidic acid] here?
**A.** The MIC was 256 µg/mL (≈ 495 µM).

**Q.** For `Cc1ccc(C(C)C)cc1` [p-cymene], which MIC [1, 8] is on record?
**A.** Its MIC is > 1000 µg/mL.

**Q.** And the “Direct Activity FUSR MIC” value [1, 9]?
**A.** Its value is “No direct activity”.

**Q.** And the MIC [2, 9]?
**A.** Its MIC is > 1000 µg/mL.

**Q.** Which MIC [1, 8] does the source give for `C=C1CC/C=C(\C)CC[C@@H]2[C@@H]1CC2(C)C` [β-caryophyllene] here?
**A.** The MIC was 31.3 µg/mL (≈ 153 µM).

**Q.** And the MIC [2, 9]?
**A.** The MIC was > 1000 µg/mL.

**Q.** And the cytotoxic effect [6]?
**A.** The cytotoxic effect was “low cytotoxic effect”.

**Q.** And the “MIC compared with kanamycin” value (S. aureus MTCC 7405)?
**A.** Its value is “a better MIC on S. aureus MTCC 7405 than the kanamycin”.

**Q.** What about the MIC (MSSA (ATCC 29,213)) of the same molecule?
**A.** Its MIC is 313 µg/mL (≈ 1530 µM).

**Q.** What about the MIC [7] of the same molecule?
**A.** The MIC was 5.1 µg/mL (≈ 25 µM).

**Q.** What about the “decrease of the MIC of penicillin V on FUSR S. aureus” value [3] of the same molecule?
**A.** Its value is 267 fold.

**Q.** And the “decrease of the MIC … on MRSA” value [4]?
**A.** Its value is 4 fold.

**Q.** Which MIC [1, 8] does the source give for `C=CC(=C)CCC=C(C)C` [β-myrcene] here?
**A.** Its MIC is > 1000 µg/mL.

**Q.** What about the MIC [2, 9] of the same molecule?
**A.** Its MIC is > 1000 µg/mL.

**Q.** With `C=C1CCC2CC1C2(C)C` (stereo not drawn) [β-pinene] as the molecule, how does the MIC [1, 8] read?
**A.** The MIC was 250 µg/mL (≈ 1840 µM).

**Q.** What about the MIC [2, 9] of the same molecule?
**A.** The MIC was > 1000 µg/mL.

**Q.** What does the source list for `CC1=CCC(C(C)C)=CC1` [γ-terpinene]?
**A.** MIC [1, 8]: > 1000 µg/mL; Direct Activity FUSR MIC [1, 9]: No direct activity; MIC [2, 9]: > 1000 µg/mL
